The text below walks through data of article PMC12196235, “Enhancing the Pharmacological Properties of Triterpenes Through Acetylation: An Anticancer and Antioxidant Perspective” (Molecules, 2025).

Each structure is given as a SMILES string. “And” between values parts separate entries of the source, which are not always exact repeats. Equal values may be shown once. Read-outs that look alike come from different tables or passages of the source.

The subject of series [1] is HeLa (human cervical epithelioid carcinoma). Briefly: MTT assay, HeLa. It is filed as cell-based. The method in brief: (§1)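 MTT formazan read-out of viable cells after compound exposure at 37 °C. MCF-7 and A-549 grown in RPMI 1640, HeLa in DMEM, HDF normal fibroblasts in Fibroblast Basal Medium; each with 10% FBS, 1% L-glutamine and 1% penicillin/streptomycin.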
In general terms: Tetrazolium assays rely on reduction of a dye to a coloured formazan, in cell work by metabolically active cells.

Series [2] deals with KB (human oral squamous carcinoma). Briefly: MTT assay, KB. It is filed as cell-based.
In series [3] the test system is MCF-7 (human breast carcinoma). As to the kind of experiment: MTT assay, MCF-7. It is filed as cell-based. The method in brief: as §1
Series [4] concerns A-549 (human lung carcinoma). Briefly: MTT assay, A-549. It is filed as cell-based. The method in brief:
as §1

Series [5] has as its system HeLa, KB, MCF-7, A-549, PC-3 and SKOV-3. As to the kind of experiment: MTT assay, summary over the cancer cell lines. It is filed as cell-based, human. To be noted: classification by IC50 (good ≤ 10 μM, moderate 10–30 μM, ref 83). In a few lines:
as §1

For another series, the system named is SKOV-3. Briefly: Apoptosis assay (Cell Death Detection ELISA Plus), SKOV-3. It is filed as cell-based, human. As for the experimental part:
(§2) The induction of apoptosis by tested compounds was determined with Cell Death Detection ELISA Plus from Roche Diagnostics GmbH (Mannheim, Germany).
(§3) Cell Death Detection ELISA Plus is an enzyme immunoassay for determining cytoplasmic histone-associated DNA fragments (mono- and […]) after induced cell death. Cells (10^4) were pipetted into wells of 96-well plates, and test compounds were added at final concentrations of 0.1, 1.0 and 10.0 µg × mL^−1. Cells incubated in the absence of test compounds served as negative controls. After 4 h of incubation, cells were harvested by centrifugation of the plates for 10 min at 200× g. Supernatants were removed carefully, and cell pellets were resuspended in 200 µL of cell lysis buffer and incubated for 30 min at room temperature. After centrifugation of the plates (10 min at 200× g), 20 µL of cell lysates was transferred in duplicate into wells of provided streptavidin-coated microplates. Then, 80 µL of the immunoreagent containing a mixture of anti-histone-biotin monoclonal antibody and anti-DNA-peroxidase monoclonal antibody was added to each well. The microplates were covered with a provided adhesive foil and incubated for 2 h at room temperature. Thereafter, the solution in the wells was removed by tapping the microplate. The wells were rinsed three times with incubation buffer, and 100 µL of substrate (2,2′-azino-bis [3-ethylbenzothiazoline-6-sulphonic acid], ABTS) was added to each well. After 10–20 min, 100 µL of ABTS stop solution was pipetted to each well, and the absorbance was read at 405 nm (test wavelength) and 490 nm (reference wavelength). The apoptotic index was calculated based on the enrichment of mono- and oligonucleosomes according to the following equation:apoptotic index = [{A405(sample) − A490(sample)}/{A405(negative control) − A490(negative control)}]

Another series has as its system PC-3. Briefly: Apoptosis assay (Cell Death Detection ELISA Plus), PC-3. To be noted: PC-3, 4 h incubation, enrichment of mono- and oligonucleosomes vs negative control. It is filed as cell-based, human. How it is done:
as §2, §3
In general terms: In an ELISA, binding on a coated surface is turned into a signal by an enzyme label.

The next series is described as follows: CUPRAC antioxidant assay. To be noted: calculated from Trolox standard curve. In a few lines: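 The CUPRAC reagent was made from 7.5 mM neocuproine, 10 mM CuCl2 and ammonium acetate buffer pH 7.0; the DPPH reagent was a 0.2 mM solution. Both were read spectrophotometrically in plates. Activity is given as % inhibition and as Trolox equivalents from standard curves.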

Series [6] has as its system HT-29 (human colorectal adenocarcinoma). The following applies: ref 47; read-out: anticancer IC50 (HT-29); cited from earlier work.
Series [7] relates to CCRF-CEM, CEM (human T lymphoblastic leukemia). To be noted: cited from earlier work.
The next series concerns C-6. The following applies: ref 47; read-out: anticancer IC50 (C-6); cited from earlier work.
In series [8] the test system is Jurkat 1E.6 (human T cell leukemia). The following applies: ref 47; read-out: anticancer IC50 (Jurkat 1E.6); cited from earlier work.
The subject of series [9] is SW-707 (human colon carcinoma). To be noted: ref 49, cited from earlier work.
The subject of series [10] is P-388 (murine lymphocytic leukemia). To be noted: ref 49, cited from earlier work.

Regarding `C=C(C)[C@@H]1CC[C@]2(CO)CC[C@]3(C)[C@H](CC[C@@H]4[C@@]5(C)CC[C@H](O)C(C)(C)[C@@H]5CC[C@]43C)[C@@H]12` [5a, betulin], the IC50 in [1] (Homo sapiens, MTT assay, HeLa, read-out: IC50 (±SD), HeLa) was 18.3 µM; in series [2] (Homo sapiens, MTT assay, KB), 19.7 µM; in series [3] (Homo sapiens, MCF7, MTT assay, MCF-7, read-out: IC50 (±SD), MCF-7) it was 18.1 µM; in [4] (Homo sapiens, A549, MTT assay, A-549, read-out: IC50 (±SD), A-549), 19.6 µM; in series [6], 4.3 µM; in series [7] (ref 26, read-out: anticancer IC50 (CCRF-CEM, CEM)), 250 µM. For the same compound, the IC50 is 24.6 µM in series [7] (ref 49, read-out: anticancer IC50 (CCRF/CEM)); 5.9 µM in the series on C-6; 6.7 µM in series [8]; 51.7 µM in series [9] (read-out: anticancer IC50 (SW-707)); 12.4 µM in series [10] (read-out: anticancer IC50 (P-388)). Moreover, the “Selectivity index (SI), HeLa” value in series [1] (IC50 HDF / IC50 HeLa) turned out to be 0.86. The “Selectivity index (SI), KB” value in [2] (IC50 HDF / IC50 KB) turned out to be 0.80. In addition, in series [3] (IC50 HDF / IC50 MCF-7), the “Selectivity index (SI), MCF-7” value is 0.87. For the same compound, in [4] (IC50 HDF / IC50 A-549), the “Selectivity index (SI), A-549” value is 0.81. In addition, the “cytotoxic activity class” value in series [5] is on record as “high or moderately high activity”. Further, in the series on SKOV-3 (0.1 µg/mL, mean over SKOV-3 and PC-3), the mean apoptotic index came out at 5.54. In addition, the “Apoptotic index (AI), SKOV-3” value in the series on SKOV-3 (SKOV-3, 4 h incubation, enrichment of mono- and oligonucleosomes vs negative control) is listed as 5.26 (0.03). In addition, in the series with PC-3, the “Apoptotic index (AI), PC-3” value is reported as 5.82 (0.03). The “Trolox Equivalent, CUPRAC Assay” value in “CUPRAC antioxidant assay” is 0.299 mg/mL and 0.299 ± 0.00663 mg/mL. Further, the “anticancer IC50 (CCRF/CEM)” value in series [7] (ref 49) was 10.9 µg/mL. The “anticancer IC50 (SW-707)” value in series [9] is listed as 22.9 µg/mL. Also, in series [10], the “anticancer IC50 (P-388)” value is on record as 5.5 µg/mL.
